From patent publication US12637464B2, “Tetracyclic compounds for treating brain disorders” (The Regents of the University of California, priority 2021, dated 2026)

Test system: C57BL/6J mice
Assay: 4-odor discrimination and reversal
Format: in vivo, mouse
Conditions: 1 mg/kg IP
Description: 4-Odor Discrimination and Reversal. A 4-odor discrimination and reversal behavioral assay was performed as described previously with slight modifications. Food restriction was begun five days before the discrimination and reversal tests to reduce animals' body weight to ˜80% of their starting weight. A total of 31 C57BL/6J mice 2-3 months of age were used in this assay. Eleven mice (5 males, 6 females) served as VEH/unstressed controls, 10 animals (4 males, 6 females) as a VEH/stress group, and 10 animals (4 males, 6 females) as a treatment/stress group. Both the VEH/stress and […] groups were subjected to a 7-day unpredictable mild stress protocol using previously validated stressors. Two stressors were delivered during the day, with additional overnight stressors on 4 of the days. […]

Q: `CCN(CC)C(=O)[C@@H]1C=C2c3cccc4ccn(c34)C[C@H]2N(C)C1` [(+)-JRT] was tested. Which stimulus discrimination (4-odor discrimination phase, stressed mice) did it give?
A: does not impact stimulus discrimination

Q: What about the “cognitive deficits induced by unpredictable mild stress (reversal)” value (reversal phase, after 7-day unpredictable mild stress) of the same compound?
A: rescues cognitive deficits induced by unpredictable mild stress
